# Tested on: not listed separately
# Experiment: Inhibition of NDM-1 (unknown origin)
# Set-up: species or system Bacteria
# Details: not given
Compound,IC50,pIC50
COc1cccc2sc(Nc3nnc(-c4cccs4)o3)nc12,0.692 µM,
Nc1cccc(-c2cc(C(=O)O)nc(C(=O)O)c2)c1,0.08 µM,
CN(C)c1ccc(-c2cc(C(=O)O)nc(C(=O)O)c2)cc1,0.19 µM,
O=C(O)[C@@H]1CS[C@H]2CS[C@H](CS)N21,23 µM,
CCC/C(=N\Nc1cccc2cccnc12)C(=O)O,68.2 µM,
CC1(C)S[C@@H]2CS[C@@H](CS)N2[C@H]1C(=O)O,180 µM,
CC1(C)S[C@H]2CS[C@H](CS)N2[C@@H]1C(=O)O,200 µM,
NCc1ccc(Cn2ccnc2C(=O)O)cc1,165 µM,
O=C(O)[C@H]1CS[C@@H]2CS[C@@H](CS)N12,109 µM,
CC1=C(c2ccc(Cl)cc2)N(/C(C)=N/c2ccc(Br)cc2)C(c2ccc(Cl)cc2)N1c1ccc(Br)cc1 (stereo not drawn),600 µM,
CCCCC(=O)NC(Cc1ccccc1)C(=O)SCC(=O)O (stereo not drawn),28.6 µM,
CSCCC(NC(=O)Cc1ccccc1)C(=O)SCC(=O)O (stereo not drawn),19.7 µM,
CC(=O)NC1=C(S)/C(=C\S)NC1=O,0.11 µM,
CCCCC(=O)NC(CCSC)C(=O)SCC(=O)O (stereo not drawn),37.7 µM,
C[C@@H](CS)C(=O)N[C@@H](C(=O)O)c1ccc2cc[nH]c2c1,64.8 µM,
CC(=O)C1CSC(C(=O)O)N1 (stereo not drawn),3.45 µM,
O=C(O)c1ccc(O)c(CP(=O)(O)O)n1,0.322 µM,
O=C(O)c1cccc(CP(=O)(O)O)n1,0.374 µM,
Oc1c(C(Nc2ccc(F)cc2)c2cncs2)ccc2cccnc12 (stereo not drawn),10.3 µM,
CCCC/C(=N\Nc1cccc2cccnc12)C(=O)O,82.3 µM,
CC1=C(c2ccc(Cl)cc2)N(/C(C)=N/c2ccc(Cl)cc2)C(c2ccc(Cl)cc2)N1c1ccc(Br)cc1 (stereo not drawn),400 µM,
C[C@H](CS)C(=O)N[C@@H](C(=O)O)c1ccc2cc[nH]c2c1,24.8 µM,
O=C(O)C(=O)CBr [BROMOPYRUVATE],2.57 µM,
CC(C)c1cc2c(c(O)c1O)[C@@]1(C(=O)O)CCCC(C)(C)[C@@H]1CC2 [CARNOSIC ACID],27.1 µM,
O=C(O)c1cccc(C(=O)O)n1 [DIPICOLINIC ACID],1.13 µM,
CCN(CC)C(=S)SSC(=S)N(CC)CC [DISULFIRAM],0.13 µM,

# Continued, values first:
IC50,pIC50,Compound
118 µM,,O=C(O)c1nccn1Cc1ccc(O)cc1
63.4 µM,,O=C(O)c1nccn1Cc1ccccc1
0.13 µM,,O=C(Nc1cccc(-c2cc(C(=O)O)nc(C(=O)O)c2)c1)c1ccccc1
0.13 µM,,O=C(O)c1cc(-c2ccccc2O)cc(C(=O)O)n1
0.16 µM,,O=c1c2ccccc2sn1-c1ccccc1
54.9 µM,,CCCCC(=O)NC(Cc1c[nH]c2ccccc12)C(=O)SCC(=O)O (stereo not drawn)
,4.5,Cc1cc(-c2ccccc2)c(C(=O)O)[nH]1
0.306 µM,,O=C(O)c1ccc(N(Cc2ccccc2)C(=O)c2cccs2)c(CP(=O)(O)O)n1
16.6 µM,,O=C(O)CSC(=O)C(Cc1c[nH]c2ccccc12)NC(=O)Cc1ccc(-c2ccccc2)cc1 (stereo not drawn)
44 µM,,O=C(O)CSC(=O)C(Cc1ccccc1)NC(=O)Cc1ccc(-c2ccccc2)cc1 (stereo not drawn)
0.463 µM,,Oc1c(C(Nc2ccccn2)c2cccs2)ccc2cccnc12 (stereo not drawn)
27.9 µM,,O=C(O)CSC(=O)C(Cc1c[nH]c2ccccc12)NC(=O)Cc1ccccc1 (stereo not drawn)
2.93 µM,,O=C(Cc1ccccc1)N[C@@H]1C(=O)N2C(C(=O)O)=C(CSc3nnc(-c4ccc(-n5[se]c6ccccc6c5=O)cc4)[nH]3)CSC12 (stereo partly drawn)
,4.2,Cc1cccc(-c2cc[nH]c2C(=O)O)c1
28.1 µM,,CCCC/C(=N\Nc1cccc2ccccc12)C(=O)O
900 µM,,CC1=C(c2ccccc2)N(/C(C)=N/c2ccc(Cl)cc2)C(c2ccccc2)N1c1ccc(Cl)cc1 (stereo not drawn)

# Biological target: not listed separately
# Experiment: Binding affinity to NDM-1 (unknown origin) assessed as inhibition constant
# Set-up: species or system Bacteria
# Details: not given
row,Compound,Ki
1,O=C(O)c1ncsc1NS(=O)(=O)c1cccnc1,0.29 µM
2,O=c1c2ccccc2[se]n1-c1ccccc1 [EBSELEN],0.38 µM

# Next, values leading:
row,Ki,Compound
1,0.42 µM,O=C(CSc1n[nH]c(-c2ccncc2)n1)Nc1ccccc1
2,1.2 µM,O=C(CSc1nnc(-c2ccncc2)s1)Nc1ccccc1
3,0.43 µM,O=C(CSc1nnc(-c2ccccc2O)[nH]1)Nc1ccccc1
4,140 µM,O=C(NOC(=O)Oc1ccccc1)OCc1ccccc1
5,0.81 µM,O=C(CSc1nnc(-c2ccccc2O)s1)Nc1nc2ccccc2s1
6,0.35 µM,O=C(CSc1nnc(-c2ccccc2O)[nH]1)Nc1nc2ccccc2s1
7,0.6 µM,O=C(CSc1nnc(-c2ccccc2O)o1)Nc1ccccc1
8,0.64 µM,O=C(CSc1nnc(-c2ccccc2O)s1)Nc1ccccc1
9,0.23 µM,O=C(CSc1nnc(-c2ccncc2)o1)Nc1ccccc1
10,0.58 µM,O=Cc1coc2ccccc2c1=O
11,2300 µM,N[C@@H](C(=O)N[C@@H]1C(=O)N2C(C(=O)O)=C(Cl)CS[C@H]12)c1ccccc1 [CEFACLOR ANHYDROUS]

# Tested on: Escherichia coli
# Experiment: Antibacterial activity against Escherichia coli expressing NDM-1
# Format: functional
# Details: not given
row,MIC,Compound
1,16 µg/mL,CCN(CC)C(=S)SSC(=S)N(CC)CC [DISULFIRAM]

# Tested on: Klebsiella pneumoniae
# Experiment: Antibacterial activity against Klebsiella pneumoniae N11-2218 expressing NDM-1infected in mouse assessed as survival rate at 10 mg/kg,sc measured after 5 days
# Format: functional
# Details: N11-2218, 120 h, time 5 day
row,Compound,survival at 10 mg/kg
1,N[C@H](CN[C@H](CN[C@@H](CC(=O)O)C(=O)O)C(=O)O)C(=O)O,95%
2,COc1cc(/C=C/c2ccc(O)cc2)cc(OC)c1 [PTEROSTILBENE],52%

# From ChEMBL document CHEMBL5226335, “Efforts towards the inhibitor design for New Delhi metallo-beta-lactamase (NDM-1)” (Eur J Med Chem, 2021)
